Measured values reported in patent US6809119B2, “Branched chain amino acid-dependent aminotransferase inhibitors and their use in the treatment of neurodegenerative diseases” (Warner-Lambert Company LLC, priority 2001, dated 2004).

What was measured:
[1] = target: T1, rat BCAT cytosolic form (rrBCATc) (Rattus norvegicus, UniProt P54690); assay: In vitro coupled enzyme assay, rat BCAT cytosolic form; format: biochemical; settings: inhibition of recombinant rat BCATc; coupled glutamate dehydrogenase/NADH assay, 37° C., pH 7.8
T1 construct: inferred from purification on a Ni-charged chelating column with imidazole elution; made in house; host or cells: E. coli BL21(DE3)
T1 sequence (P54690 1-411): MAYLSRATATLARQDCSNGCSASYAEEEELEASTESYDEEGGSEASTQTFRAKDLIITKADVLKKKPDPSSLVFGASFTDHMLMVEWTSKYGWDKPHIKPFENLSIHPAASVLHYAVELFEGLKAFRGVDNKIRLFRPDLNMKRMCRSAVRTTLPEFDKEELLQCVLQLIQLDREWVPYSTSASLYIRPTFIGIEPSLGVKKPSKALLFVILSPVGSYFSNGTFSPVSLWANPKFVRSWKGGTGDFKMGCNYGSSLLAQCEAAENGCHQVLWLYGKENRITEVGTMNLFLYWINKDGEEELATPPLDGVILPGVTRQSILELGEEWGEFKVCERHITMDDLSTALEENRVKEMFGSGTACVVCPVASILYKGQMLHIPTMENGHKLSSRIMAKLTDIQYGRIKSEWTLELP
Experimental: (§1) In vitro enzyme assay: human Branched Chain Amino Acid Aminotransferase cytosolic form (hBCATc) and mitochondrial form (hBCATm) as well as rat BCAT cytosolic form were assayed at 37° C. in 25 mM phosphate buffer pH 7.8. In addition, 2 mM DTT and 12.5 mM EDTA were added to the assay mixture. A coupling enzyme assay was used to monitor the production of glutamate. The formation of NADH from NAD+at […] was followed on a 96-well plate Molecular Devices plate reader. The following components were used in this coupled assay: 4 mM ADP, 1 mM NAD+, 750 μM L-Leucine, 500 μM a-ketoglutarate, 10 μM pyridoxal phosphate, 1 unit glutamate dehydrogenase, and 1.25 μg of the appropriate BCAT enzyme. Inhibitions by compounds were assayed by adding various concentrations to this coupled assay procedure as a DMSO stock up to a 5% v/v DMSO/buffer ratio.
(§2) Enzyme Preparation: humanBCATc and ratBCATc were expressed in BL21(DE3) cells. A growing culture of cells was induced with 1 mM IPTG at room temperature overnight. These cells were harvested by centrifugation at 10,000 g for 20 minutes. The supernatant was discarded, and the cells were stored at −80° C. until needed. The protein was purified by the following method. The cell paste was resuspended in extraction buffer (0.1 M phosphate, pH 8.0, with 0.01 M Tris-HCL and 5 mM TCEP and then lysed on a French Press at 1000 psi. The lysate was centrifuged at 10,000 g for 15 minutes, and the pellet was discarded. The supernatant was loaded onto a Hitrap Chelating column previously charged with 0.1 M NiSO4 and washed with 3 to 4 column volumes of extraction buffer. The column was then washed with 0.01 Tris, pH 7.5, 10% glycerol, 150 mM NaCl, 5 mM TCEP for two column volumes. The column was then further washed with two column volumes of 0.1 M phosphate, pH 6.0, 0.01 M Tris, 10% glycerol, and 750 mM NaCl. Finally, the column was washed with two column volumes of the same buffer plus 50 mM imidazole. The BCAT enzyme was then eluted with the same buffer but with 350 mM imidazole. The eluant was then dialyzed overnight against 10 mM phosphate buffer pH 8.0, 10% glycerol, and 5 mM TCEP. The dialyzed protein was then loaded onto a Q-sepharose column and eluted using a salt gradient. Active fractions were collected and further purified on a Superose-12 column to yield pure BCAT protein.

[2] = target: T2, human Branched Chain Amino Acid Aminotransferase cytosolic form (hBCATc) (Homo sapiens, UniProt P54687); assay: In vitro coupled enzyme assay, human BCAT cytosolic form; format: biochemical; settings: inhibition of recombinant human BCATc; coupled glutamate dehydrogenase/NADH assay, 37° C., pH 7.8; read-out: rhBCATc
T2 construct: inferred from purification on a Ni-charged chelating column with imidazole elution; made in house; host or cells: E. coli BL21(DE3)
T2 sequence (P54687 1-386): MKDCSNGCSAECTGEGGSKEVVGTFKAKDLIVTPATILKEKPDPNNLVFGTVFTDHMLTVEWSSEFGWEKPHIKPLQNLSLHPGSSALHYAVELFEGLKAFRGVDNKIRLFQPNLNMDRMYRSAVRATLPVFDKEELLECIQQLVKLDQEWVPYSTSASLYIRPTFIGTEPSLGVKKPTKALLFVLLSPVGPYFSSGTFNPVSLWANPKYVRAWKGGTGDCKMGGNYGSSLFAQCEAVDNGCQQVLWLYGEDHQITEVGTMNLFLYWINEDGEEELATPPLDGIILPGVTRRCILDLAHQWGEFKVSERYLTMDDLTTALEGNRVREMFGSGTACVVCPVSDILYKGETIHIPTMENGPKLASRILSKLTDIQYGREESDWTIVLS
Experimental: as §1, §2

Row | IC50 [1] | IC50 [2] | melting point | Compound
1 | 2.9 µM | 28 µM |  | O=C(NNS(=O)(=O)c1ccccc1OC(F)(F)F)c1ccc(Oc2ccccc2)cc1 [Example 21, 4-Phenoxybenzoic acid, 2-[2-(trifluoromethoxy)phenylsulfonyl]hydrazide]
2 |  |  | 219 to 219.7 °C | Cc1cccc(S(=O)(=O)Nc2ccc(C(=O)NNS(=O)(=O)c3ccccc3)cc2)c1 (hydrate or solvate) [Example 17, Benzoic acid, 4-[[(3-methylphenyl)sulfonyl]amino]-, 2-(phenylsulfonyl)hydrazide]
3 |  | 4.6 µM | 76 to 77.1 °C | CCCCc1ccc(S(=O)(=O)Nc2ccc(C(=O)NNS(=O)(=O)c3ccccc3)cc2)cc1 [Example 12, Benzoic acid, 4-[[(4-n-butylphenyl)sulfonyl]amino]-, 2-(phenylsulfonyl)hydrazide]
4 |  | 13 µM | 142.3 to 142.9 °C | CCc1ccc(S(=O)(=O)Nc2ccc(C(=O)NNS(=O)(=O)c3ccccc3)cc2)cc1 [Example 10, Benzoic acid, 4-[[(4-ethylphenyl)sulfonyl]amino]-, 2-(phenylsulfonyl)hydrazide]
5 | 28.1 µM | 60 µM | 171 to 173 °C | Nc1ccc(C(=O)NNS(=O)(=O)c2ccccc2)cc1 [Example 2, Benzoic acid, 4-amino-2-(phenylsulfonyl)hydrazide]
6 | 48 µM | 26 µM | 159 to 160 °C | O=C(NNS(=O)(=O)c1ccccc1)c1ccc(OCc2ccccc2)cc1 [Example 29]
7 | 0.43 µM | 17 µM |  | O=C(NNS(=O)(=O)c1ccccc1C(F)(F)F)c1ccc(Oc2ccccc2)cc1 [Example 23, 4-Phenoxybenzoic acid, 2-[2-trifluorophenylsulfonyl]hydrazide]
8 | 1.2 µM | 9.5 µM |  | Cc1cccc(S(=O)(=O)NNC(=O)c2ccc(Oc3ccccc3)cc2)c1 [Example 18, 4-Phenoxybenzoic acid, 2-[(3-methyl)phenylsulfonyl]hydrazide]
9 |  | 0.7 µM | 195.7 to 196.2 °C | O=C(NNS(=O)(=O)c1ccccc1)c1ccc(NS(=O)(=O)c2c(Cl)cc(Cl)cc2Cl)cc1 [Example 3, Benzoic acid, 4-[[(2,4,6trichlorophenyl)sulfonyl]amino]-, 2-(phenylsulfonyl)hydrazide]
10 |  | 110 µM |  | Cc1ccc(S(=O)(=O)NNC(=O)c2ccc(Oc3ccccc3)cc2)cc1[N+](=O)[O-] [Example 22, 4-Phenoxybenzoic acid, 2-[(4-methyl-3-nitro)phenylsulfonyl]hydrazide]
11 |  | 7 µM | 185.6 to 186.5 °C | CS(=O)(=O)Nc1ccc(C(=O)NNS(=O)(=O)c2ccccc2)cc1 [Example 8, Benzoic acid, 4-[(methylsulfonyl)amino]-, 2-(phenylsulfonyl)hydrazide]
12 |  | 3 µM | 94.1 to 94.9 °C | O=C(NNS(=O)(=O)c1ccccc1)c1ccc(NS(=O)(=O)c2ccc(Oc3ccccc3)cc2)cc1 [Example 6, Benzoic acid, 4-[[[(4-phenoxy)benzene]sulfonyl]amino]-, 2-(phenylsulfonyl)hydrazide]
13 | 2.8 µM | 28 µM |  | O=C(NNS(=O)(=O)c1cccc(Br)c1)c1ccc(Oc2ccccc2)cc1 [Example 19, 4-Phenoxybenzoic acid, 2-[3-bromophenylsulfonyl]hydrazide]
14 |  | 3.8 µM | 191.6 to 192.4 °C | Cc1ccc(S(=O)(=O)Nc2ccc(C(=O)NNS(=O)(=O)c3ccccc3)cc2)cc1 [Example 9, Benzoic acid, 4-[[(4-methylphenyl)sulfonyl]amino]-, 2-(phenylsulfonyl)hydrazide]
15 |  | 32.3 µM | 180 to 182 °C | O=C(NNS(=O)(=O)c1ccccc1)c1ccc(C#CCC2CCCCC2)cc1 [Example 34, 4-(3-Cyclohexyl-1-propynyl)-benzoic acid, 2-(phenylsulfonyl)hydrazide]
16 |  | 2.8 µM | 164.3 to 164.9 °C | COc1ccc(S(=O)(=O)Nc2ccc(C(=O)NNS(=O)(=O)c3ccccc3)cc2)cc1 [Example 30, Benzoic acid, 4-[[(4-methoxyphenyl)sulfonyl]amino]-, 2-(phenylsulfonyl)hydrazide]
17 | 5.9 µM | 35 µM |  | O=C(NNS(=O)(=O)c1ccccc1Cl)c1ccc(Oc2ccccc2)cc1 [Example 20, 4-Phenoxybenzoic acid, 2-[2-chlorophenylsulfonyl]hydrazide]
18 | 1.5 µM | 37 µM |  | O=C(NNS(=O)(=O)c1ccccc1)c1ccc(Oc2ccccc2)cc1 [Example 28, 4-Phenoxybenzoic acid, 2-(phenylsulfonyl)hydrazide]
19 |  | 50 µM | 149 to 150 °C | O=C(NNS(=O)(=O)c1ccccc1)c1ccccc1Oc1ccccc1 [Example 27, 2-Phenoxybenzoic acid, 2-(phenylsulfonyl)hydrazide]
20 |  | 2.3 µM |  | Cc1cccc(S(=O)(=O)Nc2ccc(C(=O)NNS(=O)(=O)c3ccccc3)cc2)c1 [Example 17, Benzoic acid, 4-[[(3-methylphenyl)sulfonyl]amino]-, 2-(phenylsulfonyl)hydrazide]
21 |  |  | 214.4 to 215.6 °C | Cc1cccc(Cl)c1S(=O)(=O)Nc1ccc(C(=O)NNS(=O)(=O)c2ccccc2)cc1 [Example 7, Benzoic acid, 4-[[(2-chloro-6-methylphenyl)sulfonyl]amino]-, 2-(phenylsulfonyl)hydrazide]
22 |  | 40 µM | 193 to 195 °C | O=C(NNS(=O)(=O)c1ccccc1)c1ccc([N+](=O)[O-])cc1 [Example 1, Benzoic acid, 4-nitro-2-(phenylsulfonyl)hydrazide]
23 |  | 6 µM | 98.5 to 99.4 °C | O=C(NNS(=O)(=O)c1ccccc1)c1ccc(NS(=O)(=O)c2ccc(C(F)(F)F)cc2)cc1 [Example 4, Benzoic acid, 4-[[[4-(trifluoromethyl)phenyl]sulfonyl]amino]-, 2-(phenylsulfonyl)hydrazide]
24 |  | 4.8 µM | 183.5 to 185 °C | O=C(NNS(=O)(=O)c1ccccc1)c1ccc(NS(=O)(=O)c2ccc(F)cc2)cc1 [Example 14, Benzoic acid, 4-[[(4-fluorophenyl)sulfonyl]amino]-, 2-(phenylsulfonyl)hydrazide]
25 |  | 4.9 µM | 140.8 to 144.5 °C | O=C(NNS(=O)(=O)c1ccccc1)c1ccc(NS(=O)(=O)c2ccccc2)cc1 [Example 15]
26 | 2.2 µM | 34 µM |  | O=C(NNS(=O)(=O)c1ccccc1)c1cccc(Oc2ccccc2)c1 [Example 26, 3-Phenoxybenzoic acid, 2-(phenylsulfonyl)hydrazide]
27 |  |  | 193 to 195 °C | O=C(NNS(=O)(=O)c1ccccc1)c1ccc(I)cc1 [Example 31, 4-Iodo-benzoic acid, 2-(phenylsulfonyl)hydrazide]
28 |  | 7.5 µM |  | CCCc1ccc(S(=O)(=O)Nc2ccc(C(=O)NNS(=O)(=O)c3ccccc3)cc2)cc1 [Example 11, Benzoic acid, 4-[[(4-n-propylphenyl)sulfonyl]amino]-, 2-(phenylsulfonyl)hydrazide]
